Results published in ChEMBL document CHEMBL1201862, “PubChem BioAssay data set” (2004).
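How tested: cells in 96-well plates exposed to compound for 48 hours at five concentrations. The concentration for 50% growth inhibition is given as GI50.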 Activity calls are given as the source filed them. Cut-off read from the data, not from the text of the source: active = GI50 up to about 1.1 µM and inactive = higher.

What was measured:
Assay in all cases: NCI anticancer screen, dose series, 48 h
[1] = system: OVCAR-3
[2] = system: EKVX
[3] = system: MCF7
[4] = system: OVCAR-8
[5] = system: SK-OV-3
[6] = system: COLO 205
[7] = system: SNB-19
[8] = system: HT-29
[9] = system: UACC-62
[10] = system: SF-539
[11] = system: SK-MEL-5
[12] = system: SK-MEL-2
[13] = system: MDA-N
[14] = system: MDA-MB-231
[15] = system: KM12
[16] = system: DU-145
[17] = system: NCI/ADR-RES
[18] = system: HCT-15
[19] = system: NCI-H23
[20] = system: K562
[21] = system: SNB-75
[22] = system: SK-MEL-28
[23] = system: SF-268
[24] = system: OVCAR-5
[25] = system: MDA-MB-435
[26] = system: SF-295
[27] = system: Malme-3M
[28] = system: OVCAR-4
[29] = system: NCI-H460
[30] = system: SR
[31] = system: M14
[32] = system: A498
[33] = system: LOX IMVI
[34] = system: ACHN
[35] = system: Hs-578T
[36] = system: 786-0
[37] = system: RPMI-8226
[38] = system: T47D
[39] = system: PC-3
[40] = system: UACC-257
[41] = system: HOP-92
[42] = system: RXF 393
[43] = system: NCI-H226
[44] = system: HCC 2998
[45] = system: A549
[46] = system: CAKI-1
[47] = system: IGROV-1
[48] = system: SN12C
[49] = system: SW-620
[50] = system: UO-31
[51] = system: NCI-H522
[52] = system: BT-549
[53] = system: HCT-116
[54] = system: MOLT-4
[55] = system: TK-10
[56] = system: U-251
[57] = system: HOP-62
[58] = system: CCRF-CEM
[59] = system: HL-60

Measured: GI50

O=C(O)c1nc(-c2ccccc2)[nH]c1C(=O)O
active: [30] 0.0188 µM | [54] 1.04 µM | [58] 0.577 µM
14.3 µM: [18]
inactive: [1] 11.8 µM | [2] 17.4 µM | [3] 2.32 µM | [4] 14.1 µM | [5] 18.4 µM | [6] 17 µM | [7] 12.5 µM | [8] 7.03 µM | [9] 17.2 µM | [10] 7.8 µM | [11] 15.1 µM | [12] 7.76 µM | [13] 11.8 µM | [14] 5.62 µM | [15] 4.65 µM | [16] 15 µM | [17] 27.7 µM | [19] 13.9 µM | [20] 3.72 µM | [21] 19.4 µM | [22] 16.6 µM | [23] 16 µM | [24] 17.2 µM | [25] 8.87 µM | [26] 16.7 µM | [27] 15.3 µM | [28] 16.8 µM | [29] 15.4 µM | [31] 10.9 µM | [32] 15.4 µM | [33] 3.01 µM | [34] 16.8 µM | [35] 24.8 µM | [36] 10.6 µM | [37] 1.84 µM | [38] 15.3 µM | [39] 5.32 µM | [40] 16.6 µM | [41] 16.3 µM | [42] 13.5 µM | [43] 14.8 µM | [44] 5.94 µM | [45] 14 µM | [46] 14.4 µM | [47] 11.7 µM | [48] 13.6 µM | [49] 2.47 µM | [50] 12.1 µM | [51] 13.1 µM | [52] 17.4 µM | [53] 4.43 µM | [55] 15.5 µM | [56] 4.18 µM | [57] 16 µM

COc1ccc(/N=N/C(=N/NC(=O)c2ccc(C)cc2)c2ccc(N(CCC#N)CCC#N)cc2OC)cc1
active: [59] < 0.01 µM
> 100 µM: [18]
inactive: [1] > 100 µM | [2] > 100 µM | [3] > 100 µM | [4] > 100 µM | [5] > 100 µM | [6] > 100 µM | [7] > 100 µM | [8] > 100 µM | [9] > 100 µM | [11] > 100 µM | [12] > 100 µM | [13] > 100 µM | [14] > 100 µM | [15] > 100 µM | [16] > 100 µM | [17] > 100 µM | [19] > 100 µM | [20] > 100 µM | [22] > 100 µM | [23] > 100 µM | [24] > 100 µM | [25] > 100 µM | [26] > 100 µM | [27] > 100 µM | [28] > 100 µM | [29] > 100 µM | [30] 36.6 µM | [31] > 100 µM | [32] > 100 µM | [33] > 100 µM | [34] > 100 µM | [35] > 100 µM | [36] > 100 µM | [38] > 100 µM | [39] > 100 µM | [40] > 100 µM | [41] > 100 µM | [42] > 100 µM | [43] > 100 µM | [44] > 100 µM | [45] > 100 µM | [46] > 100 µM | [47] > 100 µM | [48] > 100 µM | [49] > 100 µM | [50] > 100 µM | [51] > 100 µM | [52] > 100 µM | [53] > 100 µM | [54] > 100 µM | [55] > 100 µM | [56] > 100 µM | [57] > 100 µM

CC1(C)COP(=S)(c2ccccn2)O[C@@H]1c1ccccc1 (stereo partly drawn)
94.2 µM: [18]
inactive: [2] > 100 µM | [3] 98.6 µM | [4] > 100 µM | [5] > 100 µM | [6] 38.3 µM | [7] > 100 µM | [8] 81.8 µM | [9] > 100 µM | [11] 26.9 µM | [13] 74.6 µM | [14] > 100 µM | [15] > 100 µM | [16] > 100 µM | [17] 66.1 µM | [19] 69.5 µM | [20] 41.6 µM | [21] 6.19 µM | [22] > 100 µM | [23] > 100 µM | [24] > 100 µM | [25] > 100 µM | [26] 55.2 µM | [27] > 100 µM | [28] 70 µM | [29] > 100 µM | [30] 30 µM | [59] 24.1 µM | [31] > 100 µM | [32] > 100 µM | [33] > 100 µM | [34] > 100 µM | [35] > 100 µM | [36] > 100 µM | [38] 22.3 µM | [39] 88.7 µM | [40] > 100 µM | [41] > 100 µM | [42] 62.2 µM | [43] 37.9 µM | [44] > 100 µM | [45] 81.3 µM | [46] > 100 µM | [47] > 100 µM | [48] > 100 µM | [49] > 100 µM | [50] 50.8 µM | [51] 56.6 µM | [52] > 100 µM | [53] 42.8 µM | [54] 30.1 µM | [55] > 100 µM | [56] > 100 µM | [57] > 100 µM | [58] 42.1 µM
